# US7402600B2, “Nitroderivatives of cardiovascular agents” (NicOx S.A., priority 1999, dated 2008)
# Tested on: gastric mucosa
# Test: Example F7: gastric tolerability after oral administration in NEM-treated rats
# Type: in vivo
# Details: rats all receiving NEM, p.o., 0.02 mmoles/Kg of each component
# Protocol: Example F1 was repeated with four groups of rats (each group of ten animals), all of them receiving NEM, and orally administered as it follows: • a. control group: the vehicle formed of an aqueous suspension 1% w/v of carboxymethylcellulose, • b. one group (group b—comparative) administered at the same time with 5 mg/Kg (0.02 mmoles/Kg) of flurbiprofen+2.7 mg/Kg (0.02 mmoles/Kg) of 4-thiazolidin carboxilic acid in the same above vehicle, • c. one group (group c—comparative) administered at the same time with 7.4 mg/Kg (0.02 mmoles/Kg) of 4-(nitroxy)butyl ester of flurbiprofen, synthetized according to the method described in WO 94/12463, +2.7 mg/Kg (0.02 mmoles/Kg) of 4-thiazolidin carboxilic in the same above vehicle, • d. one group (group d) administered with 9.8 mg/Kg (0.02 mmoles/Kg) of 3-[2-fluoro-α-methyl-(1,1′-biphenyl)-4-acetyl]thiazolidin-4-carboxylic acid 4-(nitroxy)butyl ester synthetized as from Ex. 1(indicated as NO-Flurbiprofen in Table VII), in the above same vehicle.
structure (smiles),measurement,value
"CC(C(=O)N1CSCC1C(=O)OCCCCO[N+](=O)[O-])c1ccc(-c2ccccc2)c(F)c1 (stereo not drawn) [Example 1, 3-[2-fluoro-α-methyl-(1,1′-biphenyl)-4-acetyl]thiazolidin-4-carboxylic acid 4-(nitroxy)butyl ester]",Gastropathy % incidence,0%
